Results as given in US20260035384A1, “COMPOUND CONTAINING CYCLOHEXYL” (CHIA TAI TIANQING PHARMACEUTICAL GROUP CO., LTD., priority 2022, published 2026).
Where a chain is given by its changes, count along the chain named. pIC50: −log10 of the molar value.

How the values were obtained:
[1] = system: LNCaP cells; assay: Assay on inhibitory activity for LNCaP cell proliferation (CCK-8); type: cell-based; details: 168 h incubation
Summary of the method: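 Cells seeded at 1×10^5 cells/mL in phenol red-free 1640 with 2% CSS-FBS, treated at final 10000 nM-0.61 nM in duplicate. After 168 h incubation, viability read with CCK-8.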

[2] = In vitro stability in liver microsome; type: in vitro ADME; details: human liver microsome 0.5 mg/mL, NADPH, 37° C.
Protocol: Liver microsome incubation samples (species: human, monkey, rat, and mouse) were prepared by mixing a PBS buffer (pH=7.4), a liver microsome solution (0.5 mg/mL), a test compound, and an NADPH+MgCl2 solution and incubated at 37° C. and 300 rpm for 1 h. Zero-hour samples were prepared by mixing a PBS buffer (pH=7.4), a liver microsome solution (0.5 mg/mL), and a test compound. An acetonitrile solution containing an internal standard was added to the samples, and supernatants were prepared by protein precipitation, diluted, and then assayed by LC/MS/MS.

[3] = target: T1, AR in LNCaP cells (Homo sapiens, UniProt P10275, T878A); assay: Assay on degradation activity for AR in LNCaP cells (HTRF human androgen receptor detection kit); type: cell-based; details: 24 h incubation; for DC50: HTRF
T1 construct: Assay on Degradation Activity for AR in LNCaP Cells; endogenous in cells; host or cells: LNCaP cells
T1 sequence (P10275 1-920 T878A): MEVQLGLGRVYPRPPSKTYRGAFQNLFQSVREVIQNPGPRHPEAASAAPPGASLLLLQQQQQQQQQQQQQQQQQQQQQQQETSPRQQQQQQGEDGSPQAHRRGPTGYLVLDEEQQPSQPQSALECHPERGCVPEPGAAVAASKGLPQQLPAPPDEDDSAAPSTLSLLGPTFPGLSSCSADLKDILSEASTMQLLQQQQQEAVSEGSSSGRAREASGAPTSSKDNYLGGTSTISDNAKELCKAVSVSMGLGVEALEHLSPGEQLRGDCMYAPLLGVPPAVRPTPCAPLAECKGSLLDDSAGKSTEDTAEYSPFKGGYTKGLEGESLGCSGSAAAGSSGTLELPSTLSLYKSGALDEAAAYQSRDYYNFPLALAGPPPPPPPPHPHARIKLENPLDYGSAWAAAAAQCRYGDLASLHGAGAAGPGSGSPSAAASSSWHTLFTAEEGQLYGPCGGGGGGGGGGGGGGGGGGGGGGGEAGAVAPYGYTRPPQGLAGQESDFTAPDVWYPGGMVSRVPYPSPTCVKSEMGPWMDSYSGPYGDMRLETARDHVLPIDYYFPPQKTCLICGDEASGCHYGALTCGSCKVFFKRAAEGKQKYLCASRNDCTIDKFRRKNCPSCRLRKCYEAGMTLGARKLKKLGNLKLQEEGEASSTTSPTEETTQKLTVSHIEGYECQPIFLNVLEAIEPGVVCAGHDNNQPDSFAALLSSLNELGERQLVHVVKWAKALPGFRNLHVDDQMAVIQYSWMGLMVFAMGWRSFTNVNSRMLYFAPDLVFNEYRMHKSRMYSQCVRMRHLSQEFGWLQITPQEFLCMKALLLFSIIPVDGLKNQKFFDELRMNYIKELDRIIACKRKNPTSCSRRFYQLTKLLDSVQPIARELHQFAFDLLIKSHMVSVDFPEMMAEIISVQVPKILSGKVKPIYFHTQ
Protocol: (§1) The detection was carried out using the HTRF HUMAN ANDROGEN RECEPTOR DETECTION KIT (cisbio, 64ANDRPEG), 4× Supplemented Lysis buffer was prepared using the Blocking reagent stock solution (100×) and Lysis buffer stock solution (4×), and 1× Supplemented Lysis buffer was prepared using the 4× Supplemented Lysis buffer and ddH2O. Premixed antibody solutions were prepared using Detection buffer, Androgen Receptor Eu Cryptate antibody, and Androgen Receptor d2 antibody.
(§2) LNCaP cells in a good growth state were taken, washed with PBS, digested with pancreatin, and added with 2% CSS—FBS phenol red-free 1640 complete medium to terminate the digestion. The cells were collected by using a centrifuge tube, adjusted to a cell density of 1×10^6 cells/mL, and seeded in a 96-well plate (100 μL/well). The cells were incubated overnight in a cell incubator. Compounds were added using a nanoliter pipettor such that the final concentrations of the compounds were 500 nM-0.488 nM. Two duplicate wells were set for each concentration, and meanwhile, a control was set. After another 24 h of incubation in the cell incubator, the medium was pipetted out, the 1× Supplemented Lysis buffer was added at 40 μL/well to lyse the cells. After the cells were oscillated for 40 min at room temperature, 16 μL of the cell lysate was added to a 384-well plate, the Premixed antibody solutions were added at 4 μL/well, and the mixture was left to stand at 25° C. for 2 h. Fluorescence values were detected at 665 nm/620 nm using an Envision microplate reader, the four-parameter analysis was performed, the dose-response curves were fit, and DC50 (the concentration of the drug when the degradation rate reaches 50%) and Dmax (the maximum degradation rate) were calculated.

[4] = target: T2, AR in VCaP cells (Homo sapiens, UniProt P10275); assay: Assay on degradation activity for AR in VCaP cells (HTRF human androgen receptor detection kit); type: cell-based; details: 24 h incubation
T2 construct: Assay on Degradation Activity for AR in VCaP Cells; endogenous in cells; host or cells: VCaP cells
T2 sequence (P10275 1-920): T1 sequence (P10275 1-920 T878A) with A878T
Protocol: as §1
as §2, with “VCaP” for “LNCaP”, “DMEM” for “1640”, “µL/well).” for “μL/well).”, “1000 nM-0.977” for “500 nM-0.488”

[5] = system: VCaP cells; assay: Assay on inhibitory activity for VCaP cell proliferation (CCK-8); type: cell-based; details: 168 h incubation
Summary of the method: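 VCaP cells seeded at 1×10^5 cells/mL in phenol red-free DMEM with 5% charcoal-stripped FBS, treated in duplicate at 10000–0.61 nM final. After 168 h incubation, viability was read with CCK-8.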

With N#Cc1ccc(O[C@H]2CC[C@H](NC(=O)c3ccc(N4CCC5(CC4)CN(C4Cc6ccc7c(C8CCC(=O)NC8=O)noc7c6C4)C5)nn3)CC2)cc1Cl (single isomer, unassigned) [Compound 24] the pIC50 ([1]; Homo sapiens) was greater than 6.00 and the “Human liver microsome Residuals at 60 min (%)” value [2] was greater than 85%.
With N#Cc1ccc(O[C@H]2CC[C@H](NC(=O)c3ccc(N4CCC5(CC4)CN(C4Cc6ccc7c(C8CCC(=O)NC8=O)noc7c6C4)C5)nn3)CC2)cc1Cl (single isomer, unassigned) [Compound 25] the pIC50 [1] was greater than 6.00 and the “Human liver microsome Residuals at 60 min (%)” value [2] was greater than 85%.
In the case of N#Cc1ccc(O[C@H]2CC[C@H](NC(=O)c3ccc(N4CCC(CN5CC6(Cc7ccc8c(C9CCC(=O)NC9=O)noc8c7C6)C5)CC4)nn3)CC2)cc1Cl (stereo partly shown) [Compound 21], the pIC50 ([1]; Homo sapiens) was greater than 6.00 and the “Human liver microsome Residuals at 60 min (%)” value [2] was greater than 85%.
In the case of N#Cc1ccc(O[C@H]2CC[C@H](NC(=O)c3ccc(N4CCC5(CC4)CC(CN4CCc6c(ccc7c(C8CCC(=O)NC8=O)noc67)C4)C5)nn3)CC2)cc1Cl (stereo partly shown) [Compound 36], the pIC50 ([1]; Homo sapiens) was greater than 6.00, the DC50 [3] was no more than 20 nM and the Dmax ([3]; maximum degradation rate) was greater than 80%. It also gave a DC50 [4] of no more than 1 nM and a pIC50 ([5]; Homo sapiens) greater than 8.00.
With N#Cc1ccc(O[C@H]2CC[C@H](NC(=O)c3ccc(N4CCC5(CC4)CC(CN4CCc6ccc7c(C8CCC(=O)NC8=O)noc7c6CC4)C5)nn3)CC2)cc1Cl (stereo partly shown) [Compound 37] the pIC50 ([1]; Homo sapiens) was greater than 6.00, the DC50 [3] was no more than 20 nM and the Dmax ([3]; maximum degradation rate) was greater than 80%. It also gave a DC50 [4] of no more than 1 nM and a pIC50 ([5]; Homo sapiens) greater than 7.00.
N#Cc1ccc(O[C@H]2CC[C@H](NC(=O)c3ccc(N4CCC(N5CC(CN6CCc7ccc8c(C9CCC(=O)NC9=O)noc8c7C6)C5)CC4)nn3)CC2)cc1Cl (stereo partly shown) [Compound 91] gave a pIC50 ([1]; Homo sapiens) greater than 6.00, a DC50 [3] of no more than 20 nM and a Dmax ([3]; maximum degradation rate) greater than 80%. It also gave a DC50 [4] of no more than 1 nM and a pIC50 ([5]; Homo sapiens, VCaP, 168 h) greater than 8.00.
In the case of N#Cc1ccc(O[C@H]2CC[C@H](NC(=O)c3ccc(N4CCC(N5CC(CN6Cc7ccc8c(C9CCC(=O)NC9=O)coc8c7C6)C5)CC4)nn3)CC2)cc1Cl (stereo partly shown) [Compound 98], the pIC50 ([1]; Homo sapiens) was greater than 6.00, the DC50 [3] was no more than 20 nM and the Dmax ([3]; maximum degradation rate) was greater than 80%. The DC50 [4] was no more than 1 nM and the pIC50 ([5]; Homo sapiens, VCaP, 168 h) was greater than 7.00.
N#Cc1ccc(O[C@H]2CC[C@H](NC(=O)c3ccc(N4CCC(CN5CC(CN6Cc7cc8onc(C9CCC(=O)NC9=O)c8cc7C6)C5)CC4)nn3)CC2)cc1Cl (stereo partly shown) [Compound 102] gave a pIC50 ([1]; Homo sapiens) greater than 6.00, a DC50 [3] of no more than 20 nM and a Dmax ([3]; maximum degradation rate) greater than 80%. For the same compound, the DC50 [4] was no more than 1 nM and the pIC50 ([5]; Homo sapiens, VCaP, 168 h) was greater than 8.00.
For N#Cc1ccc(O[C@H]2CC[C@H](NC(=O)c3ccc(N4CCN(C5CN(CC6Cc7ccc8c(C9CCC(=O)NC9=O)coc8c7C6)C5)CC4)nn3)CC2)cc1Cl (stereo partly shown) [Compound 107], the pIC50 ([1]; Homo sapiens) was greater than 6.00, the DC50 [3] was no more than 20 nM and the Dmax ([3]; maximum degradation rate) was greater than 80%. For the same compound, the DC50 [4] was no more than 1 nM and the pIC50 ([5]; Homo sapiens, VCaP, 168 h) was greater than 8.00.
Compound N#Cc1ccc(O[C@H]2CC[C@H](NC(=O)c3cnc(N4CCN(C5CN(CC6Cc7ccc8c(C9CCC(=O)NC9=O)coc8c7C6)C5)CC4)nc3)CC2)cc1Cl (stereo partly shown) [Compound 109] has a pIC50 ([1]; Homo sapiens) greater than 6.00, a DC50 [3] of no more than 20 nM and a Dmax ([3]; maximum degradation rate) greater than 80%. It also gave a DC50 [4] of no more than 1 nM and a pIC50 ([5]; Homo sapiens, VCaP, 168 h) greater than 7.00.
With N#Cc1ccc(O[C@H]2CC[C@H](NC(=O)c3cnc(N4CCN(C5CN(CC6Cc7ccc8c(C9CCC(=O)NC9=O)coc8c7C6)C5)CC4)nc3)CC2)cc1Cl (stereo partly shown) [Compound 110] the pIC50 [1] was greater than 6.00, the DC50 [3] was no more than 20 nM and the “Degradation activity for AR in LNCaP cells (Dmax, %)” value ([3]; maximum degradation rate) was greater than 80%. It also gave a DC50 [4] of no more than 1 nM and a pIC50 [5] greater than 7.00.
Work on CN(c1ccc(C#N)c(Cl)c1)[C@H]1CC[C@H](NC(=O)c2cnc(N3CCC(CN4CCc5c(ccc6c(C7CCC(=O)NC7=O)noc56)C4)CC3)nc2)CC1 (stereo partly shown) [Compound 117] yielded a pIC50 ([1]; Homo sapiens) greater than 6.00, a DC50 [3] of no more than 20 nM and a Dmax ([3]; maximum degradation rate) greater than 80%. It also gave a DC50 [4] of no more than 1 nM and a pIC50 ([5]; Homo sapiens) greater than 7.00.
Compound CN(c1ccc(C#N)c(Cl)c1)[C@H]1CC[C@H](NC(=O)c2ccc(N3CCC(CN4CCc5c(ccc6c(C7CCC(=O)NC7=O)noc56)C4)CC3)nn2)CC1 (stereo partly shown) [Compound 118] has a pIC50 ([1]; Homo sapiens) greater than 6.00, a DC50 [3] of no more than 20 nM and a Dmax ([3]; maximum degradation rate) greater than 80%. It also gave a DC50 [4] of no more than 1 nM and a pIC50 ([5]; Homo sapiens) greater than 7.00.
With N#Cc1ccc(O[C@H]2CC[C@H](NC(=O)c3cnc(N4CCC(CN5CCc6c(ccc7c(C8CCC(=O)NC8=O)noc67)C5)CC4)cn3)CC2)cc1Cl (stereo partly shown) [Compound 145] the pIC50 ([1]; Homo sapiens) was greater than 6.00, the DC50 [3] was no more than 20 nM and the Dmax ([3]; maximum degradation rate) was greater than 80%. For the same compound, the DC50 [4] was no more than 1 nM and the pIC50 ([5]; Homo sapiens) was greater than 7.00.
